Measured values: US20090023700A1, “NEUROPROTECTIVE TREATMENTS” (University of Louisville Research Foundation, priority 2007, published 2009)
“And” between values parts separate entries of the source, which are not always exact repeats. Equal values may be shown once.

Tests used:
[1] = test system: T9 contusive spinal cord injury; assay: T9 spinal cord contusion, intrathecal infusion: CTB tracing, white matter (EC) and C3 axon histology; format: in vivo, rat; details: for CTB-traced fiber area in the gracile nucleus: PBS 43+/−17
[2] = test system: T9 contusive spinal cord injury; assay: Sensory-evoked potentials (SEP) after 0.4 mm T9 contusion; format: in vivo, rat; details: 0.4 mm contusion
[3] = test system: human aortic endothelial cells; assay: Apoptosis of serum-deprived cultured endothelial cells; format: cell-based; details: for apoptotic endothelial cells: 3 μM
Method: To determine whether bpV(phen) can directly promote survival of endothelial cells, it was tested on cultured human aortic endothelial cells deprived of serum. […] With 3 μM bpV(phen), only ˜1.3% were apoptotic in both the 0 and 5% serum groups (FIG. 9A). Eighteen hours after plating under control conditions, between 5 and 13% of endothelial cells were apoptotic, whereas treatment with 3 μM bpV(phen) reduced apoptosis to ˜2-3% (FIG. 9B).
Endothelial cell cultures. Human aortic endothelial cells (Lonza Walkersville) were plated at 5×10^4 cells per well in 24 well polystyrene plates and incubated with different concentrations of bpV(phen) for 6 or 18 h at 37° C. in DMEM/Ham's F-12 (BioWhittaker) plus EGM-2 growth factor supplements [EGM-2 SingleQuots (Lonza Walkersville) containing hydrocortisone, human epidermal growth factor, FBS, vascular endothelial growth factor, human basic fibroblast growth factor, R3-IGF-1, ascorbic acid, heparin, and gentamicin/amphotericin-B] and 10-20% fetal calf serum. […] Afterward, the endothelial cells were fixed in 4% paraformaldehyde for 2 h, the nuclei were stained with 2.5 μg/ml DNA dye Hoechst 33258 (bis-benzimide; Sigma) in PBS containing 0.1% Triton X-100 for 30 min, and the cells were covered with Fluoromount-G (Southern Biotechnology) to reduce fluorescence-induced fading (Invitrogen).
Quantitative measurements and statistics. The extent of sensory innervation of the gracile nucleus was determined by measuring the CTB-labeled terminal fiber area in every third section as described previously (Baker et al. (2007) Exp Neurol 205:82-91). In short, images of every third section through the right and left gracile nuclei were analyzed using the density slice feature of the Scion Image software. […] Images of EC-stained sections were captured, and the positive areas were measured with Scion Image. […] The number of spared myelinated axons at C3 was counted in semithin sections using a 63× oil objective in 15.7×15.7 μm grids placed over the middle part of each fasciculus gracilis (see FIG. 4D-4F). […]

cdc25B PTP [4] = details: yeast enzyme; cited from earlier work
cdc25B PTP [5] = biological target: T1, cdc25B PTP (Mus musculus, UniProt P30306); details: mouse enzyme; cited from earlier work
T1 sequence (P30306 1-576): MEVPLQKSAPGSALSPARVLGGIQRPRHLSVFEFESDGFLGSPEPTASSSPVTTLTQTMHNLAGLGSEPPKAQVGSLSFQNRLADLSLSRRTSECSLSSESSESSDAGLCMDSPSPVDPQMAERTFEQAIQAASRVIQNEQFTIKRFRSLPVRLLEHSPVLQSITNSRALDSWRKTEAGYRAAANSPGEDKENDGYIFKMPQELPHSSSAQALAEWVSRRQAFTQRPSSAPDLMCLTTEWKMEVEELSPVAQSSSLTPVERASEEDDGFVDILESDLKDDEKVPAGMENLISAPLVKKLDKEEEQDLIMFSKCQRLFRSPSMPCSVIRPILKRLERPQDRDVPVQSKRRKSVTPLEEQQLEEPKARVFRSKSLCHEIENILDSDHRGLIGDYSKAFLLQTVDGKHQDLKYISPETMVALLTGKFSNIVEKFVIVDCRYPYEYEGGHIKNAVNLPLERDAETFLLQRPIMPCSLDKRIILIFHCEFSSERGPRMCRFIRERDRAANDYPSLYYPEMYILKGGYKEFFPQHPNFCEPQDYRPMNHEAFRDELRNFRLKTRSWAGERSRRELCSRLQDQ

C6 cells = details: cited from earlier work
[6] = test system: Madin-Darby canine kidney cells; details: H2O2-susceptible Madin-Darby canine kidney cells; cited from earlier work
AP1 = details: macrophages; cited from earlier work
[7] = 100 μM, 7 d L5/6 infusion started immediately after 0.3 mm contusion

O.O.O.OO.OO.[K+].[OH-].[V].c1cnc2c(c1)ccc1cccnc12 [bpV(phen), potassium bisperoxo(1,10-phenanthroline)oxovanadate (V)]
CTB-traced fiber area in the gracile nucleus ([1]; 30 μM, 7 d L5/6 infusion started immediately after 0.3 mm contusion): 60+/−5% | CTB-labeled terminal fiber area in the gracile nucleus ([1]; 30 μM, 7 d intrathecal infusion at T9 started immediately after 0.3 mm contusion, PBS 17+/−7%): 47+/−6 % of sham | area of spared white matter in the dorsal column at injury epicenter ([1]; 30 μM, 7 d intrathecal infusion at T9 started immediately after 0.3 mm contusion, PBS 28+/−6%): 50+/−8 % of sham | spared dorsal column white matter at the epicenter ([1]; 100 μM, 7 d L5/6 infusion started 4 h after 0.3 mm contusion, PBS 37+/−6%): 78+/−7% | gracile nucleus innervation (CTB) ([1]; 100 μM, 7 d L5/6 infusion started 4 h after 0.3 mm contusion, PBS 66+/−11%): 100+/−7% | total white matter ([1]; 100 μM, 7 d L5/6 infusion started 4 h after 0.3 mm contusion, PBS 70+/−5%): 103+/−4% | area of spared dorsal column white matter at the injury epicenter [1, 7]: 58+/−12% | CTB-traced fiber area in the gracile nucleus [1, 7]: 93+/−11% | total white matter at the epicenter ([1]; 100 μM, 7 d L5/6 infusion started immediately after 0.3 mm contusion, PBS 68+/−6%): 90+/−12% | CTB-labeled innervation of the gracile nucleus ([1]; 100 μM, 28 d L5/6 infusion started 4 h after contusion, 42 d after injury, 14 d after end of infusion, PBS 68+/−11%): 106+/−9 % of sham | area of spared white matter in the dorsal column at the T9 injury epicenter ([1]; 100 μM, 28 d L5/6 infusion started 4 h after contusion, 42 d after injury, PBS 48+/−8%): 79+/−7% and 80% | number of myelinated axons in fasciculus gracilis at C3 ([1]; 100 μM, 28 d L5/6 infusion started 4 h after contusion, 42 d after injury, PBS 63+/−6%): 102+/−5% | CTB-traced fiber area in the gracile nucleus ([1]; 300 μM, 7 d L5/6 infusion started immediately after 0.3 mm contusion): 80+/−14% | SEP amplitude, group average ([2]; 100 μM 7 d lumbar infusion started immediately, one week after contusion, PBS 6+/−6, sham 16): 21+/−7 μV | rats with an SEP above background noise ([2]; 100 μM 7 d lumbar infusion, one week after contusion, PBS one of five): four of five | SEP amplitude, group average ([2]; 100 μM 7 d lumbar infusion, one week after termination of infusion, PBS 2+/−2, sham 36): 30+/−18 μV | rats with a detectable SEP ([2]; 100 μM 7 d lumbar infusion, one week after termination of infusion, PBS one rat): all rats | endothelial apoptosis ([3]; 1 μM, 18 h, 0, 1.25, 2.5 and 5% serum): only reduces endothelial apoptosis in the 2.5 and 5% serum groups | apoptotic endothelial cells ([3]; 6 h after plating, 0 and 5% serum groups, control 2-3%): ~1.3% | apoptotic endothelial cells ([3]; 18 h after plating, serum deprived, control 5-13%): 2-3% | inhibition of catalytic activity of purified cdc25B PTP (cdc25B PTP [4]): can inhibit | inhibition of catalytic activity of purified cdc25B PTP (cdc25B PTP [5]): can inhibit | oxidative damage to DNA (C6 cells): does not cause oxidative damage to DNA | cell death [6]: does not cause death | AP1 activation (AP1): activates
